According to patent US8530652B2, “Pyrrolopyrazoles, potent kinase inhibitors” (Agouron Pharmaceuticals, Inc., priority 2005, dated 2013):

Key:
[1] = target: PAK4 kinase activity in whole cells (TR-293-KDG, modified HEK 293 overexpressing GEF-H1b and PAK4 KD) (Homo sapiens (Human), UniProt O96013); experiment: PAK4 cellular assay: sandwich ELISA of PAK4-dependent phosphorylation of GEF-H1b in TR-293-KDG cells; assay type: cell-based; conditions: doxycycline-induced, 3-hour exposure, phospho-GEF-H1b ELISA
Description: A sandwich ELISA method was used to measure the PAK4 kinase activity in whole cells. The level of PAK4-dependent phosphorylation of GEF-H1b can be determined by monitoring the binding of a phosphospecific antibody to GEF-H1b. A modified HEK 293 cell line is used in the bioassay and it has been engineered to overexpress both GEF-H1b and the kinase domain (KD) of PAK4. The KD of PAK4 is inducible in this cell line by tetracycline (Trex system, Invitrogen). The name of this cell line has been designated TR-293-KDG. To establish a phosphorylation event on GEF-H1, cells are induced with doxycycline to express the PAK4 KD. […] Candidate substance effect is measured as the ability to block this phosphorylation event.
ELISA plate was prepared by pre-coating the plates with a capture antibody (α-HA-tag mouse monoclonal antibody), blocked with BSA, and washed in 0.1% tween 20 in tris-buffered saline (TBST). Tissue culture plates (precoated with poly-D-lysine) were seeded with TR-293-KDG cells. The TR-293-KDG Cells were induced to express the PAK4 KD with doxycycline overnight and subsequently & concomitantly treated with candidate substances or diluent for an additional 3-hour, continuous exposure. Cells were then lysed with a modified RIPA buffer supplemented with protease inhibitors. The fresh whole cell lysates were then added to the ELISA plate for 2-hours. Between all subsequent steps plates were washed 4 times with TBST. Detection antibody (recognizing the phospho-specific eptitope on GEF-H1b) was added for 1 hour, followed by addition of an enzyme linked goat α-rabbit secondary antibody for 45 minutes. […] EC50 values were calculated by sigmoid curve fitting using a four-parameter analysis.

[2] = target: PAK4 kinase domain (PAK4 KD) (Homo sapiens (Human), UniProt O96013); experiment: PAK4 kinase domain enzymatic assay (coupled PK/LDH, NADH absorbance at 340 nm); assay type: biochemical; conditions: PAK4 kinase domain, 25 nM PAK4 KD, 0.04 mM ATP, pH 7.5
Description: Cloning, expression, and purification of recombinant PAK4 Kinase domain (PAK4 KD): The cDNA coding for PAK4 was amplified from the EST clone (#12) (purchased from Research Genetics) by using PCR. […] The PCR amplified product was cloned into Topo vector (Invitrogen Inc.), and verified by DNA sequencing. PAK4 KD was then subcloned into expression plasmid pET28a(+), pET24a(+), or pGST4.5. The recombinant plasmids containing PAK4 KD was transformed into BL21(DE3) cells for recombinant protein expression. […] The cells were then harvested and lyzed for protein purification. Ni-NTA column (pET28a(+), pET24a(+)) and glutathione column (pGST4.5) were used for the purification.
PAK4 kinase domain enzymatic assay conditions: the enzymatic activity of PAK4 KD was measured by its ability to catalyze the transfer of a phosphate residue from a nucleoside triphosphate to an amino acid side chain of a commercially available peptide (amino acid sequence […]). The conversion of ATP to ADP accompanies the catalytic reaction. The PAK4 KD catalyzed production of ADP from ATP was coupled to the oxidation of NADH through the activities of pyruvate kinase (PK) and lactate dehydrogenase (LDH). The conversion of NADH to NAD^+ is monitored by the decrease in absorbance at 340 nm (e340=6.22 cm^−1mM^−1) using a Molecular Devices SPECTRAMAX 190 in conjunction with the Biomec FX. Typical reaction solutions contain 2 mM phosphoenolpyruvate, 0.35 mM NADH, 10 mM MgCl2, 1 mM DTT, 0.4 mM peptide ([…]) 0.04 mM ATP, 1 units/mL PK, 1 units/mL LDH, 0.01% Tween 20 in 50 mM HEPES, pH 7.5. […] The PAK KD Ki of each compound of the invention (the inhibitor) was calculated based on multiple of Percent Inhibition numbers of the inhibitor at different inhibitor concentrations. The peptide (amino sequence […]) was purchased from American Peptide Company. NADH, MgCl2, HEPES, DTT, ATP and PK/LDH were purchased from Sigma. Tween 20 was purchased from Calbiochem.

Chain of PAK4 kinase activity in whole cells (TR-293-KDG, modified HEK 293 overexpressing GEF-H1b and PAK4 KD) (O96013 321-572): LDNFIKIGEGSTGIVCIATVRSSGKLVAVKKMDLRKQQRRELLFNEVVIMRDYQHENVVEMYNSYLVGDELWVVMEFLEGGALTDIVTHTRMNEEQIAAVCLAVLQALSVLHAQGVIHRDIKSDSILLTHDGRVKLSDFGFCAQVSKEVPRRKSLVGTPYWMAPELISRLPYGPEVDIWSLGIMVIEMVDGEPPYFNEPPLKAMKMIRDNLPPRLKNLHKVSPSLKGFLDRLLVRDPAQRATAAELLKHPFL
Chain of PAK4 kinase domain (PAK4 KD) (O96013 321-572): as above

SMILES	EC50 [1] [µM]	Ki [2] [µM]
CN(C)C[C@@H](NC(=O)N1Cc2c(Nc3ncnc4ccoc34)n[nH]c2C1(C)C)c1ccccc1 [Example 83, N-[(1S)-2-(dimethylamino)-1-phenylethyl]-3-(furo[3,2-d]pyrimidin-4-ylamino)-6,6-dimethyl-4,6-dihydropyrrolo[3,4-c]pyrazole-5(1H)-carboxamide]	0.084	0.058
CCOc1ncc(F)c(Nc2n[nH]c3c2CN(C(=O)N[C@@H]2C[C@H]2c2ccccc2)C3(C)C)n1 (relative stereo) [Example 37, 3-[(2-ethoxy-5-fluoropyrimidin-4-yl)amino]-6,6-dimethyl-N-[trans-2-phenylcyclopropyl]-4,6-dihydropyrrolo[3,4-c]pyrazole-5(1H)-carboxamide]	0.805	0.27
Cc1csc2c(Nc3n[nH]c4c3CN(C(=O)N[C@H]3C[C@@H]3c3ccccc3)C4(C)C)ncnc12 (relative stereo) [Example 49, 6,6-dimethyl-3-[(7-methylthieno[3,2-d]pyrimidin-4-yl)amino]-N-[trans-2-phenylcyclopropyl]-4,6-dihydropyrrolo[3,4-c]pyrazole-5(1H)-carboxamide]	0.332	0.16
CC1(C)c2[nH]nc(Nc3nc(C#N)nc4ccccc34)c2CN1C(=O)N[C@@H]1C[C@H]1c1ccccc1 (relative stereo) [Example 40, 3-[(2-cyanoquinazolin-4-yl)amino]-6,6-dimethyl-N-[trans-2-phenylcyclopropyl]-4,6-dihydropyrrolo[3,4-c]pyrazole-5(1H)-carboxamide]	0.098	0.018
CC1(C)c2[nH]nc(Nc3ccnc(C(F)(F)F)n3)c2CN1C(=O)N[C@H]1C[C@@H]1c1ccccc1 (relative stereo) [Example 30, 6,6-dimethyl-N-[trans-2-phenylcyclopropyl]-3-{[2-(trifluoromethyl)pyrimidin-4-yl]amino}-4,6-dihydropyrrolo[3,4-c]pyrazole-5(1H)-carboxamide]	0.968	0.08
Cc1nc(Nc2n[nH]c3c2CN(C(=O)N[C@@H]2C[C@H]2c2ccccc2)C3(C)C)c2ccccc2n1 (relative stereo) [Example 84, 3-[(2-methylquinazolin-4-yl)amino]-6,6-dimethyl-N-[trans-2-phenylcyclopropyl]-4,6-dihydropyrrolo[3,4-c]pyrazole-5(1H)-carboxamide]	0.455	0.034
Cc1ncc(F)c(Nc2n[nH]c3c2CN(C(=O)N[C@@H]2C[C@H]2c2ccccc2)C3(C)C)n1 (relative stereo) [Example 44, 3-[(5-fluoro-2-methylpyrimidin-4-yl)amino]-6,6-dimethyl-N-[trans-2-phenylcyclopropyl]-4,6-dihydropyrrolo[3,4-c]pyrazole-5(1H)-carboxamide]	> 4	0.23
COc1nc(Nc2n[nH]c3c2CN(C(=O)NC2C[C@@H]2c2ccccc2)C3(C)C)nc(N2CCC[C@H]2CO)n1 (stereo partly drawn) [Example 16, 3-({4-[(2S)-2-(hydroxymethyl)pyrrolidin-1-yl]-6-methoxy-1,3,5-triazin-2-yl}amino)-6,6-dimethyl-N-[trans-2-phenylcyclopropyl]-4,6-dihydropyrrolo[3,4-c]pyrazole-5(1H)-carboxamide]	1.27	0.076
COc1ncc(F)c(Nc2n[nH]c3c2CN(C(=O)N[C@@H]2C[C@H]2c2ccccc2)C3(C)C)n1 (relative stereo) [Example 43, 3-[(5-fluoro-2-methoxypyrimidin-4-yl)amino]-6,6-dimethyl-N-[trans-2-phenylcyclopropyl]-4,6-dihydropyrrolo[3,4-c]pyrazole-5(1H)-carboxamide]	> 4	0.45
CC1(C)c2[nH]nc(Nc3nc(Cl)nc4ccccc34)c2CN1C(=O)NC1CC1c1ccccc1 (stereo not drawn) [Example 12, 3-[(2-chloroquinazolin-4-yl)amino]-6,6-dimethyl-N-[(trans-2-phenylcyclopropyl]-4,6-dihydropyrrolo[3,4-c]pyrazole-5(1H)-carboxamide]	0.078	0.038

Stronger by EC50 [1], values ahead:

EC50 [1] [µM]	Ki [2] [µM]	SMILES
0.016	0.011	CN1CCN(C(=O)N2Cc3c(Nc4nc(Cl)nc5ccsc45)n[nH]c3C2(C)C)[C@@H](Cc2ccccc2)C1 [Example 3, N-(5-{[(2S)-2-benzyl-4-methylpiperazin-1-yl]carbonyl}-6,6-dimethyl-1,4,5,6 tetrahydropyrrolo[3,4-c]pyrazol-3-yl)-2-chlorothieno[3,2-d]pyrimidin-4-amine]
0.00094	0.0028	CN(C)C[C@@H](NC(=O)N1Cc2c(Nc3nc(Cl)nc4ccsc34)n[nH]c2C1(C)C)c1ccccc1 [Example 6, 3-[(2-chlorothieno[3,2-d]pyrimidin-4-yl)amino]-N-[(1S)-2-(dimethylamino)-1-phenylethyl]-6,6-dimethyl-4,6-dihydropyrrolo[3,4-c]pyrazole-5(1H)-carboxamide]
< 0.0039	0.0083	CN(C)C[C@@H](OC(=O)N1Cc2c(Nc3ccnc(C(F)(F)F)n3)n[nH]c2C1(C)C)c1ccccc1 [Example 76, (1S)-2-(dimethylamino)-1-phenylethyl 6,6-dimethyl-3-{[2-(trifluoromethyl)pyrimidin-4-yl]amino}-4,6-dihydropyrrolo[3,4-c]pyrazole-5(1H)-carboxylate]
0.036	0.014	CC1(C)c2[nH]nc(Nc3nc(Cl)nc4ccsc34)c2CN1C(=O)N[C@@H]1C[C@H]1c1ccccc1 (relative stereo) [Example 2, 3-[(2-chlorothieno[3,2-d]pyrimidin-4-yl)amino]-6,6-dimethyl-N-[trans-2-phenylcyclopropyl]-4,6-dihydropyrrolo[3,4-c]pyrazole-5(1H)-carboxamide]
0.003	0.0019	Cc1nc(Nc2n[nH]c3c2CN(C(=O)O[C@H](CN(C)C)c2ccccc2)C3(C)C)c2ccsc2n1 [Example 69, (1S)-2-(dimethylamino)-1-phenylethyl 6,6-dimethyl-3-[(2-methylthieno[2,3-d]pyrimidin-4-yl)amino]-4,6-dihydropyrrolo[3,4-c]pyrazole-5(1H)-carboxylate]
< 0.0039	0.0052	CN(C)C[C@@H](OC(=O)N1Cc2c(Nc3ncnc4sccc34)n[nH]c2C1(C)C)c1ccccc1 [Example 75, (1S)-2-(dimethylamino)-1-phenylethyl 6,6-dimethyl-3-(thieno[2,3-d]pyrimidin-4-ylamino)-4,6-dihydropyrrolo[3,4-c]pyrazole-5(1H)-carboxylate]
< 0.0039	0.17	COc1ncc(F)c(Nc2n[nH]c3c2CN(C(=O)N[C@H](CN(C)C)c2ccccc2)C3(C)C)n1 [Example 66, N-[(1S)-2-(dimethylamino)-1-phenylethyl]-3-[(5-fluoro-2-methoxypyrimidin-4-yl)amino]-6,6-dimethyl-4,6-dihydropyrrolo[3,4-c]pyrazole-5(1H)-carboxamide]
0.02	0.28	CN(C)C[C@@H](NC(=O)N1Cc2c(Nc3ncncc3F)n[nH]c2C1(C)C)c1ccccc1 [Example 67, N-[(1S)-2-(dimethylamino)-1-phenylethyl]-3-[(5-fluoropyrimidin-4-yl)amino]-6,6-dimethyl-4,6-dihydropyrrolo[3,4-c]pyrazole-5(1H)-carboxamide]
0.02	0.12	CN(C)C[C@@H](OC(=O)N1Cc2c(Nc3ncncc3F)n[nH]c2C1(C)C)c1ccccc1 [Example 80, (1S)-2-(dimethylamino)-1-phenylethyl 3-[(5-fluoropyrimidin-4-yl)amino]-6,6-dimethyl-4,6-dihydropyrrolo[3,4-c]pyrazole-5(1H)-carboxylate]
